Test results published in patent US6867316B2, “Platinum(II) complexes of N-substituted amino dicarboxylates and the preparation method thereof” (Board of Trustees, Ewha Womans University, priority 2003, dated 2005).

How the values were obtained:
leukemia L1210 cell line [1] = assay: Antitumor activity bioassay against leukemia L1210, T/C (%) at given dosage; assay type: in vivo
leukemia L1210 cell line [2] = assay: Antitumor activity bioassay against leukemia L1210 cell line (IC50); assay type: cell-based
Protocol: Antitumor activities of the platinum complexes prepared in the above Examples 1 to 9 were assayed against the leukemia L1210 cell line according to the known method (S. S. Lee, O.-S. Jung, C. O. Lee, S. U. Choi, M.-J. Jun, Y. S. Sohn, Inorg. Chim. Acta, 239, 133 (1995)), and the results are shown in Table 1.

| Compound | T/C (%) (leukemia L1210 cell line [1]; dosage amount 20 mg/kg) | T/C (%) (leukemia L1210 cell line [1]; dosage amount 40 mg/kg) | IC50 (leukemia L1210 cell line [2]) [µM] | T/C (%) (leukemia L1210 cell line [1]; dosage amount 4 mg/kg) |
| --- | --- | --- | --- | --- |
| N[C@@H]1CCCC[C@H]1N.O=C([O-])CC[C@H](NC(=O)OCc1ccccc1)C(=O)[O-].[Pt+2] (racemic) [Pt(dach)(CbzGlu), (N-carbobenzyloxy-L-glutamato-O,O)(trans-(±)-1,2-diaminocyclohexane-N,N)platinum(II)] | 170.0 | 207.5% | 65.1 | – |
| N[C@@H]1CCCC[C@H]1N.O=C([O-])CC[C@@H](C(=O)[O-])N1C(=O)c2ccccc2C1=O.[Pt+2] (racemic) [Pt(dach)(PhthGlu), (N-phthaloyl-L-glutamato-O,O)(trans-(±)-1,2-diaminocyclo-hexane-N,N)platinum(II)] | 177.3 | 221.6% | 34.9 | – |
| N.N.O=C([O-])C1(C(=O)[O-])CCC1.[Pt+2] [Carboplatin, reference compound] | – | 168/40% | 10.2 | – |
| Cc1ccc(S(=O)(=O)N[C@@H](CCC(=O)[O-])C(=O)[O-])cc1.N[C@@H]1CCCC[C@H]1N.[Pt+2] (racemic) [Pt(dach)(TsGlu), (N-tosyl-L-glutamato-O,O)(trans-(±)-1,2-diaminocyclo-hexane-N,N)platinum(II)] | 176.3 | 191.3% | 17.6 | – |
| CCC(=O)N[C@@H](CCC(=O)[O-])C(=O)[O-].N[C@@H]1CCCC[C@H]1N.[Pt+2] (racemic) [Pt(dach)(ProGlu), (N-propionyl-L-glutamato-O,O)(trans-(±)-1,2-diaminocyclo-exane-N,N)platinum(II)] | 212.5 | 228.8% | 2.94 | – |
| CC(=O)N[C@@H](CCC(=O)[O-])C(=O)[O-].N[C@@H]1CCCC[C@H]1N.[Pt+2] (racemic) [Pt(dach)(AcGlu), (N-acetyl-L-glutamato-O,O)(trans-(±)-1,2-diaminocyclo-hexane-N,N)platinum(II) complex] | 227.3 | 190.9% | 4.63 | – |
| N[C@@H]1CCCC[C@H]1N.O=C([O-])C[C@H](NC(=O)OCc1ccccc1)C(=O)[O-].[Pt+2] (racemic) [Pt(dach)(CbzAsp), (N-carbobenzyloxy-L-aspartato-O,O)(trans-(±)-1,2-diamino-cyclohexane-N,N)platinum(II)] | 175.0 | 193.8% | 26.5 | – |
| (N-acetyl-L-aspartato-O,O)(trans-(±)-1,2-diaminocyclo-hexane-N,N)platinum(II) [Pt(dach)(AcAsp)] | 179.6 | 225.0% | 3.73 | – |
| N.N.[Cl][Pt][Cl] [Cisplatin, reference compound] | – | – | 1 | 184/4% |
| CC(=O)N[C@@H](CC(=O)[O-])C(=O)[O-].CC(C)(CN)CN.[Pt+2] [Pt(dmpda)(AcAsp), (N-acetyl-L-aspartato-O,O)(2,2-dimethyl-1,3-propane-diamine-N,N)platinum(II)] | 146.2 | 160.4% | 3.19 | – |
| CC(C)(C)C(=O)N[C@@H](CCC(=O)[O-])C(=O)[O-].N[C@@H]1CCCC[C@H]1N.[Pt+2] (racemic) [Pt(dach)(PivGlu), (N-pivalyl-L-glutamato-O,O)(trans-(±)-1,2-diaminocyclo-hexane-N,N)platinum(II)] | 211.3 | 212.5% | 2.23 | – |
